Test results reported in PMC6292453 (Biochemical Journal, 2018).

Target: T1, P450ZoGa (CYP236A2, WP_013995999) (Zobellia galactanivorans, UniProt G0L713)
T1 sequence (G0L713 1-387): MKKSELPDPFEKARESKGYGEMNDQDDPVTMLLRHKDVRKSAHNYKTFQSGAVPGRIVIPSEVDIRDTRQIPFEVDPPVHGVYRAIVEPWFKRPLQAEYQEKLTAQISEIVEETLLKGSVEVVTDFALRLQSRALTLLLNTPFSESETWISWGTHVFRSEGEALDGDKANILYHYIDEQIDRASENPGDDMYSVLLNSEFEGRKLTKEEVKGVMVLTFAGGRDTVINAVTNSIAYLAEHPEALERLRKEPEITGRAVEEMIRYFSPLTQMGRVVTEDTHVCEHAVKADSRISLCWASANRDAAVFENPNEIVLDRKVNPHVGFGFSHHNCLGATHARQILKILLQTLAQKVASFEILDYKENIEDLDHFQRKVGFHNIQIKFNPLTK
Test: crystal structure of soaked complex
Type: binding

Kd: 980 ± 120 µM
Compound: COC[C@H]1OC(O)[C@H](O)[C@@H](O)[C@H]1O (stereo partly drawn) [G6Me, 6-O-methyl-D-galactose]
